The term Km denotes the substrate concentration at which the rate is half of its maximum.

The results in this text go back to paper PMC7356358 (Biomolecules, 2020).

Like-named read-outs stand apart in the source and are kept apart here.

Series [1] relates to KPf. The conditions noted are these: SD, n = 3. An excerpt: (§1) Standard deviations shown represent three
(§2) independent assays made using separate protein purification batches. Statistical significance of data was
(§3) Table S2. Comparative ATP binding affinities for the Hsp70 proteins
(§4) The standard deviations shown in parenthesis were […]

For series [2], the system named is KPf. The conditions noted are these: read-out: Km (µM), + PfHsp40; SD, n = 3.
Description: (§6) Hsp70 proteins at final concentration of 0.4 μM were each incubated for 5 min in buffer HKMD (10 mM HEPES-KOH pH 7.5, 100 mM KCl, 2 mM MgCl2 and 0.5 mM DTT). The reaction was initiated by the addition of ATP at various concentrations (0–5 mM) and samples were analyzed every 30 min for 4 h.
Standard deviations shown represent three independent assays made using separate protein purification batches.
validated by one way ANOVA test (p< 0.05 *) and (p<0.01**).
Series [3] has as its target T1, DnaK (Escherichia coli, UniProt P0A6Y8). Description: Steady-state multi-parametric surface plasmon resonance at 25 °C with Hsp70 immobilised by amine coupling and ATP (0-20 uM) injected as analyte. Type of series: binding. On the set-up: recombinant full-length, N-terminal His6 tag (pQE30), expressed in E. coli XL1 Blue. As to conditions: SD, n = 3; read-out: KD /µM (± standard deviation). The procedure: Association was allowed for 2 min and dissociation was monitored for 8 min.
as §1, §2, §3, §4
Target sequence in this assay (P0A6Y8 2-638): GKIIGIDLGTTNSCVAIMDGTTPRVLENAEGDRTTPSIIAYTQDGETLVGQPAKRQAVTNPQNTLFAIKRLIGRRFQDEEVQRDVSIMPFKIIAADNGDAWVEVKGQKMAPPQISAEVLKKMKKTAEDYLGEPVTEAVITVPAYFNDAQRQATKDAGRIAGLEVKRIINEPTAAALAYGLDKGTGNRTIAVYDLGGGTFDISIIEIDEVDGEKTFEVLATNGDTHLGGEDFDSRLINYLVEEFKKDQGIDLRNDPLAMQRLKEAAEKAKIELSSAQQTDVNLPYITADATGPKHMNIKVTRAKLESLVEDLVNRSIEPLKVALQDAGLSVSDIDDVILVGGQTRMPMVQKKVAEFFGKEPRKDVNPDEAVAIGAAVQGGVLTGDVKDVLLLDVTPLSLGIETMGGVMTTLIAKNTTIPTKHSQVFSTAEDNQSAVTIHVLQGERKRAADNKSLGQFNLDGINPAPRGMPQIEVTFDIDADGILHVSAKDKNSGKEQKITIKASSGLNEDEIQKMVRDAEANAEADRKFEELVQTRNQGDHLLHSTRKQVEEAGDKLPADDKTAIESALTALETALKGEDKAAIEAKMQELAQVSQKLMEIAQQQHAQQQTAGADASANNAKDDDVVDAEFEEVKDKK
On the technique in general: In SPR one partner is held on a chip, and binding of the other changes the refractive index at the surface.

Series [4] concerns the target KPf. Nature of the series: ATP binding affinity by MP-SPR, KPf. On the set-up: species or system E. coli / P. falciparum. The conditions noted are these: read-out: ATP KD (± standard deviation), 25 °C, immobilized KPf, ATP analyte 0-20 μM, steady state equilibrium, three independent assays. The procedure: This assay was conducted at room temperature (25 °C) using a BioNavis Multi-parametric surface plasmon resonance (MP-SPR; BioNavis; Tampere, Finland) spectroscopy system. […] Steady state equilibrium constant data were processed and analyzed using TraceDrawer software version 1.8 (Ridgeview Instruments; Uppsala, Sweden).
Proteins Vmax (n/mol/min/mg) Km (µM)
as §1, §2
KD /µM (± standard deviation)
as §4

Series [5] deals with KPf. As to conditions: MP-SPR; for effect of N enrichment of the peptide on affinity of KPf: presence of 5 mM ADP, N-enriched form versus this peptide.
Target sequence in this assay (P11144 405-631 limits assumed): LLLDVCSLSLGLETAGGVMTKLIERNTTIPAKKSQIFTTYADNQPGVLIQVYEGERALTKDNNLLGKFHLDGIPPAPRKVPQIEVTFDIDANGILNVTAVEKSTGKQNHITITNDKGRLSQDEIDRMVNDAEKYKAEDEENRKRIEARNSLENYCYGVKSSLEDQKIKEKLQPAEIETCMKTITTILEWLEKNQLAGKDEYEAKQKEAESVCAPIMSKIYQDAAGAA
Description: The respective affinity of each Hsp70 for model peptide substrate was investigated by MP-SPR. The Hsp70 ligands were immobilized as previously described [36]. […] The analytes were injected at varying concentrations (0, 125 nM, 250 nM, 500 nM, 1000 nM and 2000 nM) over the immobilized ligands (Hsp70s). The analytes were injected at a flow rate of 100 µL/min and association and dissociation were allowed to occur for 10 min. The assay was conducted both in the absence and presence of 5 mM ADP/ATP. Analysis of association and dissociation data was conducted as previously described using TraceDrawer software version 1.8 (Ridgeview Instruments).
The target of series [6] is T1, DnaK. Description: Model peptide substrate binding by MP-SPR, DnaK. On the set-up: His6 (polyhistidine) (N); made in house; host or cells: E. coli XL1 Blue. The conditions noted are these: for effect of asparagine enrichment of the peptide on DnaK's affinity: presence of ADP, N-enriched form versus this peptide; for affinity of DnaK for peptide: peptide 0-2000 nM over immobilized DnaK, presence of ADP (5 mM). From the text: (§5) The Hsp70 ligands were immobilized as previously described.
Target sequence in this assay (P0A6Y8 whole entry): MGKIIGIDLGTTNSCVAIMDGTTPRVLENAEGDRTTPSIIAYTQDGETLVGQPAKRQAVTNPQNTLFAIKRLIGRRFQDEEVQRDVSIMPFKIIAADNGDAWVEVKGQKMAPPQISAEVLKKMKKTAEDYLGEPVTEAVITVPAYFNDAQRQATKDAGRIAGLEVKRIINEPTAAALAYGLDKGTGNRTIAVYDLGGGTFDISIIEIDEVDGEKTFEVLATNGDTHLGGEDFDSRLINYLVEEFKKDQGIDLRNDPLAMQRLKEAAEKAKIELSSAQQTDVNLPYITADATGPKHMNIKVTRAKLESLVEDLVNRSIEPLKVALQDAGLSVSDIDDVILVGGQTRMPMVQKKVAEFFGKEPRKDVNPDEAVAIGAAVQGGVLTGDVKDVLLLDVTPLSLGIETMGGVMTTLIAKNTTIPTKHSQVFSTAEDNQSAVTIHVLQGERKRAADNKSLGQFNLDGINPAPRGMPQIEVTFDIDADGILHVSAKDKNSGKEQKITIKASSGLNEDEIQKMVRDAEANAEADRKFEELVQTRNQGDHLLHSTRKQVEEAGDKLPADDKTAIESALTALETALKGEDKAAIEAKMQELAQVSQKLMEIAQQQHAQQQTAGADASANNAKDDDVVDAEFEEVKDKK

For series [7], the system named is PfHsp70-1. Description: Model peptide substrate binding by MP-SPR, PfHsp70-1. On the set-up: species or system Plasmodium falciparum. The conditions noted are these: for affinity of PfHsp70-1 relative to the non-enriched peptide (GFRVVLMYRF, ALLLMYRR): presence of ADP.
Chain of PfHsp70-1 (P11144 1-630 limits assumed): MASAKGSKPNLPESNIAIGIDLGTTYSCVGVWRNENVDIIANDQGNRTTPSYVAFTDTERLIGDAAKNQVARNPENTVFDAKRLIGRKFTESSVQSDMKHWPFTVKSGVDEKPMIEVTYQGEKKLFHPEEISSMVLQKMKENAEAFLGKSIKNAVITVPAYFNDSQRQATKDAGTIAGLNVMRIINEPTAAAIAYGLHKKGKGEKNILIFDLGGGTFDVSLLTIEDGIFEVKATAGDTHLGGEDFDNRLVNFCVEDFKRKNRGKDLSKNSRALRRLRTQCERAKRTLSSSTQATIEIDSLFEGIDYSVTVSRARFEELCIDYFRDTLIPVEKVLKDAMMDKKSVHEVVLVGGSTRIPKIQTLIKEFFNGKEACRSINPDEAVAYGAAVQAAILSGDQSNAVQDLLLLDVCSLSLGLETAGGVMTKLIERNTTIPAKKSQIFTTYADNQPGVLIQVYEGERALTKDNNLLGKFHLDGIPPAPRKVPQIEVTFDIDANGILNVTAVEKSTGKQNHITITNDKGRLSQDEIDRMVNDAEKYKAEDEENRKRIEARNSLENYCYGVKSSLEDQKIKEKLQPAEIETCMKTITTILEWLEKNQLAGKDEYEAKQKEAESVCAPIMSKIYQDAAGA
From the text: as §5

Series [8] can be described thus: ATPase activity (released inorganic phosphate). The conditions noted are these: basal ATPase, 0.4 μM Hsp70, ATP 0-5 mM, buffer HKMD pH 7.5, SD of three independent assays. Format: biochemical.
Description: as §6
Series [9] in a line: Heat stability of secondary structure by far-UV CD. The conditions noted are these: far-UV CD at 222 nm. Type of series: physicochemical. The procedure:
Spectra was averaged for 15 scans after baseline correction (buffer without recombinant protein). The spectra were deconvoluted to α-helix, β-sheet, β-turn and unordered regions, using the Dichroweb server, (http://dichroweb.cryst.bbk.ac.uk; [37]). The effect of heat stress on the secondary structure of the Hsp70s was investigated by monitoring the spectral changes of each protein at various temperatures (19–95 °C). The folded states of each Hsp70 protein at any given temperature were determined using spectral readings obtained at 222 nm as previously described. In a separate experiment, the analysis of PfAdoMetDC protein co-expressed with the various chaperone sets was conducted by monitoring the CD spectrum at 190–240 nm at 22 °C. The assay was repeated in the presence of PfAdoMetDC substrate, S-adenosylmethionine hydrochloride (SAM), as previously described with minor modifications. Briefly, PfAdoMetDC protein was preincubated in PBS supplemented with 100 μM SAM for 30 min prior to analysis at 25 °C. The resultant spectra were monitored and averaged following baseline correction (100 μM SAM using buffer void of the protein).

The test system of a further series is PfAdoMetDC. Nature of the series: Co-expression of PfAdoMetDC with supplementary chaperones in E. coli, fold by CD/fluorescence. Type of series: cell-based, Plasmodium falciparum. The conditions noted are these: co-expression with DnaJ in E. coli BL21 Star (DE3); purified PfAdoMetDC analysed by CD, ANS and intrinsic fluorescence.
Series [10] concerns the target T1, DnaK. The conditions noted are these: MP-SPR.
Target sequence in this assay (P0A6Y8 whole entry): as the sequence (P0A6Y8 whole entry) above
Description: (§7) As ligands, the recombinant Hsp70 proteins were immobilized on the CMD3D 500L chip. The analyte (respective Hsp70 protein) was prepared at various concentrations of 0, 125, 250, 500, 1000 and 2000 nM, respectively and injected at 50 μL/sec onto each channel with immobilized ligands. A reference channel without immobilized protein served as the control for non-specific binding and changes in refractive index. The analysis was conducted either in the absence or presence of 5 mM ATP/ADP. Association was allowed for 2 min, while dissociation was monitored for 8 min. Data analysis was conducted after double referencing by subtraction of both the baseline RU (buffer with ATP/ADP plus BSA as control protein) and RU from the reference channel. Kinetics steady-state equilibrium constant data were processed after concatenating the responses of all five analyte concentrations by global fitting using TraceDrawer software version 1.8 (Ridgeview Instruments).
The test system of series [11] is PfHsp70-1. Nature of the series: Self-association of PfHsp70-1 by MP-SPR. Format: binding, Plasmodium falciparum.
Description: as §7
Setting [12] is: 0.2 μM protein in PBS pH 7.5, 19–95 °C.

Description for PfAdoMetDC: Briefly, the transformed E. coli BL21 Star (DE3) cells were cultured in LB broth supplemented with 100 μg/mL ampicillin (Sigma Aldrich) to select for pASKIBA3 and 50 μg/mL spectinomycin (Sigma Aldrich), to select for pBB535 and pBB542, respectively. As control, PfAdoMetDC expressed alone (without supplementary chaperones), was expressed in E. coli BL21 StarTM (DE3) cells as previously described [33]. The expression of chaperones was initiated by addition of 1 mM IPTG and at OD600 = 0.2 while the expression of PfAdoMetDC was initiated by addition of 2 ng/mL anhydroxytetracycline (AHT) (IBA GmbH, Göttingen, Germany) at OD600 = 0.7. Cells were incubated for 24 h (37 °C, 250 rpm) from the time of induction with IPTG. The cells were harvested by centrifugation (5000 g, 20 min, 4 °C) and the pellet was resuspended in lysis buffer (100 mM Tris pH 7.5; 300 mM NaCl; 10 mM Imidazole, containing 1 mM aminoethyl benzenesulfonyl fluoride hydrochloride (AEBSF) and 1 mg/mL of lysozyme). […] Purified PfAdoMetDC protein was quantified using the Bradford assay. […] Following Strep-Tactin Sepharose affinity column purification, PfAdoMetDC was analyzed using an Äkta explorer system (Amersham Pharmacia Biotech; Buckinghamshire, UK) fast protein liquid chromatography (FPLC), to determine migration profiles of the protein preparations that were co-expressed with the various chaperones sets. The migration pattern of PfAdoMetDC as determined by Size exclusion chromatography (SEC) was used to infer the compact/relaxed state of its fold. Retention times of the respective protein preparation were determined by SEC at 22 °C in running buffer (50 mM Tris-HCl, pH 7.5, 1 mM DTT, 500 mM NaCl and 0.02% w/v NaN3) using Bio-Select SEC 250-5 column (BioRad) with a fractionation range of 1000–250,000 Da. […] The elution profiles of the protein preparations were determined as peaks obtained at 280 nm using a Spectra Series UV100 spectrophotometer (Thermo Fischer Scientific). […]

Consider `Nc1ncnc2c1ncn2[C@@H]1O[C@H](COP(=O)(O)OP(=O)(O)OP(=O)(O)O)[C@@H](O)[C@H]1O` [ATP, adenosine 5'-triphosphate], for which the Michaelis constant (Km) with KPf [1] turned out to be 29.6 µM; in the series with KPf [2], 25.7 µM. Also, the Kd at DnaK [3] is 83.8 µM.

For the compound `Nc1ncnc2c1ncn2[C@@H]1O[C@H](COP(=O)(O)OP(=O)(O)OP(=O)(O)O)[C@@H](O)[C@H]1O` [ATP], at KPf [4], the Kd worked out at 380 nM.

Turning to “ALLLMYRR [canonical Hsp70 model peptide substrate]”, the “effect of N enrichment of the peptide on affinity of KPf” value with KPf [5] is reported as “not enhanced”. Also, the “effect of asparagine enrichment of the peptide on DnaK's affinity” value at DnaK [6] is “did not enhance”.

On to ANNNMYRR, for which the “affinity of PfHsp70-1 relative to the non-enriched peptide (GFRVVLMYRF, ALLLMYRR)” value with PfHsp70-1 [7] is “higher affinity”.

Regarding “DnaK: recombinant (His)6-tagged Escherichia coli Hsp70 (DnaK)”, in series [8], the Vmax is given as 14.33 (± 1.4) n/mol/min/mg. Also, the “temperature above which the protein rapidly unfolded” value in series [9] (setting [12]) was “above 45 °C”. Moreover, in series [9] (setting [12]), the “temperature of complete unfolding” value is “approximately 68 °C”. The “effect of co-produced chaperone on PfAdoMetDC folding” value (shortened to “effect … on PfAdoMetDC folding”) in the series on PfAdoMetDC is given as “did not support PfAdoMetDC folding”. The Ka was 1.38 (±0.08) × 10^2 Ms^−1 with DnaK [10] (analyte DnaK 0-2000 nM over immobilized DnaK, + 5 mM ATP, global fit); 1.22 (±0.13) × 10^2 Ms^−1 with DnaK [10] (analyte DnaK over immobilized DnaK, + 5 mM ADP); 1.27 (±0.07) × 10^3 Ms^−1 with DnaK [10] (analyte DnaK over immobilized DnaK, no nucleotide).

In the case of GFRNNNMYRF, the “affinity of PfHsp70-1 relative to the non-enriched peptide (GFRVVLMYRF, ALLLMYRR)” value with PfHsp70-1 [7] is listed as “higher affinity”.

On to “GFRVVLMYRF [canonical Hsp70 model peptide substrate]”, for which the “effect of N enrichment of the peptide on affinity of KPf” value with KPf [5] was “not enhanced”. The “effect of asparagine enrichment of the peptide on DnaK's affinity” value on DnaK [6] was “did not enhance”.

On to “GroEL: E. coli chaperonin co-expressed as supplementary chaperone”, for which the “effect … on PfAdoMetDC folding” value in the series with PfAdoMetDC is reported as “restoration of the ß-conformation”.

For the compound “NRLLTG [canonical Hsp70 model peptide substrate]”, on DnaK [6], the “affinity of DnaK for peptide” value is listed as “nanomolar range”.

For the compound “NRNNTG [asparagine-enriched form of NRLLTG]”, the “affinity of PfHsp70-1 for peptide” value on PfHsp70-1 [7] (peptide over immobilized PfHsp70-1, presence of ADP, higher than for NRLLTG) was “nanomolar range”. The “affinity of KPf for peptide” value on KPf [5] (peptide over immobilized KPf, presence of ADP, higher than for NRLLTG) was “nanomolar range”. At DnaK [6], the “affinity of DnaK for peptide” value was “micromolar range”.

With “PfHsp70-1: recombinant Plasmodium falciparum Hsp70-1, cytosol-localized molecular chaperone (PF3D7_0818900)”, the “association rate constant (kon)” value was 2.14 (±0.04) × 10^4 Ms^−1 in the series on PfHsp70-1 [11] (analyte PfHsp70-1 0-2000 nM over immobilized PfHsp70-1, + 5 mM ATP); 1.00 (±0.17) × 10^2 Ms^−1 with PfHsp70-1 [11] (analyte PfHsp70-1 over immobilized PfHsp70-1, + 5 mM ADP); 8.51 (±1.20) × 10^3 Ms^−1 in the series with PfHsp70-1 [11] (analyte PfHsp70-1 over immobilized PfHsp70-1, no nucleotide). The Vmax in [8] is given as 22.45 (± 1.8) n/mol/min/mg. Also, the “temperature of complete unfolding” value in series [9] (setting [12]) is “around 90 °C”. Further, in series [9] (0.2 μM protein in PBS pH 7.5, 19–95 °C, relative to 19 °C), the “temperature up to which at least 50% fold is maintained” value was 60 °C. For the same compound, the “temperature range of second unfolding phase” value in series [9] (two-step unfolding pattern) is 75–90 °C. Besides, the “effect … on PfAdoMetDC folding” value in the series with PfAdoMetDC is “fully folded status”.
